{"source": "patent US7235679B2", "about": "“Crystals of a vitamin D derivative and a method for the preparation thereof” (Chugai Seiyaku Kabushiki Kaisha, priority 1996, dated 2007)", "key": {"[1]": {"experiment": "Stability test of ED-71: HPLC quantitative assay (survivability)", "assay_type": "physicochemical", "description": "(§1) Amorphous and crystalline ED-71 compounds were tested for stability at 10, 25 and […]. To estimate the stability, HPLC quantitative assay and absorbance and purity measurements were utilized. The purity was expressed as peak area ratio in percentage in HPLC (% P.A.R.). The test was carried out by using the following procedures:\n(§2) About 2 mg portions of each of the amorphous and crystalline samples are precisely weighed into transparent 10 ml test tubes each having screw cap, individually.\n(§3) The test tubes are purged with argon using a vacuum desiccator and a glove box. This purging procedure is not applied to the test tubes indicated as “1 M (air)” in the tables below.\n(§4) The test tubes in groups are fixed in thermostatic baths which are respectively controlled at the above temperatures and allowed to stand in the dark. After one (1 W) or two (2 W) weeks or one month (1 M), the test tubes are removed from the baths and subjected to the following assay and measurements:\n5 ml of absolute ethanol is precisely added to the test tube to form a sample solution. 1 ml of the sample solution and 1 ml of an internal standard solution are both precisely added to another test tube and the resulting mixture is diluted with methylene chloride to give a whole volume of 20 ml. This diluted solution is designated solution 1. The internal standard solution is formed by dissolving 2-aminopyrimidine in methanol to a concentration of 0.6 mg/ml.\nNext, both of 1 ml of another standard solution for quantitative assay which is formed by dissolving crystalline ED-71 in absolute ethanol to a concentration of 0.4 mg/ml and 1 ml of the internal standard solution are precisely added to another test tube and the resulting mixture is diluted with methylene chloride to give a whole volume of 20 ml. This diluted solution is designated solution 2.\nHPLC is carried out using 20 μl of each of solutions 1 and 2. For each solution, an area ratio of the peak of ED-71 to the peak of the internal standard substance is determined from the HPLC data. The ED-71 content in the sample is determined from the ratio of the area ratio for solution 1 to that for solution 2.\nSurvivability (%) is determined by dividing the ED-71 content thus obtained by ED-71 content in the same sample but prior to the above treatment. • HPLC conditions used: • Column: YMC A-004SIL (4.6×300 mm) • Mobile phase: methylene chloride/methanol mixture (95/5) • Flow rate: 1 ml/min • Detection: at UV 265 nm. (3) Absorbance Measurement"}, "[2]": {"experiment": "Stability of ED-71 crystalline compound, overall conclusion", "assay_type": "physicochemical", "conditions": "up to 2 weeks at 25° C. and 40° C.", "description": "as §1, §2, §3, §4\nThe values of the HPLC quantitative assay and the purity measurement are averaged over two runs."}}}
{"molecule": "C=C1/C(=C\\C=C2/CCC[C@@]3(C)C2CC[C@@H]3[C@H](C)CCCC(C)(C)O)C[C@@H](O)[C@@H](OCCCO)[C@@H]1O", "note": "(stereo partly drawn) [Amor., 1α,25-dihydroxy-2β-(3-hydroxypropoxy)vitamin D3]", "values": [{"measurement": "HPLC Quantitative Assay (% Survivability)", "setting": "[1]; 10° C., 1 M (air), dark", "result": 97.4, "unit": "%"}, {"measurement": "HPLC Quantitative Assay (% Survivability)", "setting": "[1]; 10° C., 1 M, argon, dark", "result": 94.8, "unit": "%"}, {"measurement": "HPLC Quantitative Assay (% Survivability)", "setting": "[1]; 10° C., 2 W, argon, dark", "result": 98.5, "unit": "%"}, {"measurement": "HPLC Quantitative Assay (% Survivability)", "setting": "[1]; 10° C., time 0", "result": 100, "unit": "%"}, {"measurement": "HPLC Quantitative Assay (% Survivability)", "setting": "[1]; 25° C., 1 W, argon, dark", "result": 99.5, "unit": "%"}, {"measurement": "HPLC Quantitative Assay (% Survivability)", "setting": "[1]; 25° C., 2 W, argon, dark", "result": 94.7, "unit": "%"}, {"measurement": "HPLC Quantitative Assay (% Survivability)", "setting": "[1]; 25° C., time 0", "result": 100, "unit": "%"}, {"measurement": "HPLC Quantitative Assay (% Survivability)", "setting": "[1]; 40° C., 1 W, argon, dark", "result": 99.4, "unit": "%"}, {"measurement": "HPLC Quantitative Assay (% Survivability)", "setting": "[1]; 40° C., 2 W, argon, dark", "result": 88.8, "unit": "%"}, {"measurement": "HPLC Quantitative Assay (% Survivability)", "setting": "[1]; 40° C., time 0", "result": 100, "unit": "%"}]}
{"molecule": "C=C1/C(=C\\C=C2/CCC[C@]3(C)[C@@H]([C@H](C)CCCC(C)(C)O)CC[C@@H]23)C[C@@H](O)[C@@H](OCCCO)[C@@H]1O", "note": "[Crys., 1α,25-dihydroxy-2β-(3-hydroxypropoxy)vitamin D3]", "values": [{"measurement": "stability compared with the amorphous form", "setting": "[2]", "result": "higher stability"}, {"measurement": "HPLC Quantitative Assay (% Survivability)", "setting": "[1]; 10° C., 1 M (air), dark", "result": 95.0, "unit": "%"}, {"measurement": "HPLC Quantitative Assay (% Survivability)", "setting": "[1]; 10° C., 1 M, argon, dark", "result": 97.0, "unit": "%"}, {"measurement": "HPLC Quantitative Assay (% Survivability)", "setting": "[1]; 10° C., 2 W, argon, dark", "result": 96.8, "unit": "%"}, {"measurement": "HPLC Quantitative Assay (% Survivability)", "setting": "[1]; 10° C., time 0", "result": 100, "unit": "%"}, {"measurement": "HPLC Quantitative Assay (% Survivability)", "setting": "[1]; 25° C., 1 W, argon, dark", "result": 99.4, "unit": "%"}, {"measurement": "HPLC Quantitative Assay (% Survivability)", "setting": "[1]; 25° C., 2 W, argon, dark", "result": 98.8, "unit": "%"}, {"measurement": "HPLC Quantitative Assay (% Survivability)", "setting": "[1]; 25° C., time 0", "result": 100, "unit": "%"}, {"measurement": "HPLC Quantitative Assay (% Survivability)", "setting": "[1]; 40° C., 1 W, argon, dark", "result": 99.5, "unit": "%"}, {"measurement": "HPLC Quantitative Assay (% Survivability)", "setting": "[1]; 40° C., 2 W, argon, dark", "result": 102.9, "unit": "%"}, {"measurement": "HPLC Quantitative Assay (% Survivability)", "setting": "[1]; 40° C., time 0", "result": 100, "unit": "%"}]}
